Experimental data taken from US20070270591A1, “Iron (II) amino acid chelates with reducing agents attached thereto” (priority 2006, published 2007).

Conditions: no method given; for absorption compared with ferrous sulfate: comparison with ferrous sulfate

Row | SMILES | absorption relative to ferric trisglycinate (absorbed x times better) (comparison with ferric trisglycinate) [times] | absorption compared with ferrous sulfate
1 | NCC(=O)[O-].NCC(=O)[O-].[Fe+2] [Ferrous bisglycinate] | 2.3 | better than ferrous sulfate
2 | NCC(=O)O.NCC(=O)O.NCC(=O)O.[Fe] [ferric trisglycinate] | – | better than ferrous sulfate
